Assay results reported in patent US7182943B2, “Method and system for modulation of microbial cell characteristics” (Université Laval, priority 2002, dated 2007).
Where two headings read alike, the source gives them in different places. No end group written: not given here.

What was measured:
B. longum [1] = assay: Antibiotic sensitivity by the disc assay method, B. longum cells; format: cell-based, Bifidobacterium longum ATCC 15707; conditions: after approximately 6 days of continuous culture, tolerance increased with time
Method: (§1) FIG. 1 : Tolerance to kanamycin of L. diacetylactis and B. longum cells produced during continuous immobilized cell fermentation in reactors R1 and R2 for different culture times. J and R indicate the culture day and reactor, respectively. The antibiotic sensitivity was tested by the disc assay method.
(§2) Bifidobacterium longum ATCC 15707 and Lactococcus lactis ssp lactis biovar diacetylactis were immobilized separately in κ-carrageenan/locust bean gum gel beads with a 2% (v/v) inoculum, as described previously (Lamboley et al. 1997). Beads with diameters in the range 1–2 mm were selected by wet sieving and used for fermentation experiments. This mixed gel is a good matrix entrapment for temperature-sensitive cells, with good mechanical properties for long-term stability during continuous culture with immobilized cells (Lamboley et al., 1997; 1999; 2001). The κ-carrageenan/locust bean gum gel is stabilized by potassium and other cations present in the culture broth. […] Other gel compositions can also be used for the immobilization matrix, such as polysaccharides and proteins, with other chemical products.
(§3) Reactor R1 was inoculated with 15% (v/v) of each of the two types of gel beads containing a pure culture of the two strains which have been pre-colonized during a 16 h pH-controlled batch culture. […] The reactors in series were continuously fed with MRS medium (de Man et al., 1960) supplemented with KCl 0.15 M to ensure bead mechanical stability. Medium feed flow rate was set at 240 ml/h during the 17-day culture and pH was controlled at 6.0 by addition of NH4OH 6N. The bioreactor was held at temperatures varying between 32–37° C. and purged with CO2 to maintain anaerobic conditions, with mixing set at 120 rpm.
(§4) FIG. 1 and Table 1 illustrate the effect of different antibiotics on the increase of L. diacetylactis and B. longum tolerance as a function of culture time.

L. diacetylactis = assay: Antibiotic tolerance by the disc assay method, L. diacetylactis cells; format: cell-based, Lactococcus lactis ssp lactis biovar diacetylactis; conditions: after approximately 6 days of continuous culture, tolerance increased with time
Method: as §1, §2, §3, §4

B. longum [2] = conditions: 30000 ppm H2O2, 1 min at 37° C.
Method: FIG. 4: B. longum survival to hydrogen peroxyde (H2O2) of control (free-cell batch culture) and experimental (continuous two-stage immobilized cells fermentation) cultures. […] A bacterial sample (1 ml) was incubated with 9 ml H2O2 solution at final concentrations of 0, 2000, 10000, 20000, or 30000 ppm H2O2, for 1 min at 37° C. After incubation, 0.1 ml of test sample was added to 9.9 ml catalase 2% to stop the reaction, and cell survival was determined by the pour plate method.
The resistance of cells in the effluents from R1 and R2 to different stresses was tested as a function of fermentation time and compared to a control treatment. Control cells were produced during free-cell batch fermentation in MRS medium inoculated at 2% and incubated for 18 h at 37° C. with no pH control.

Molecule	Tolerance of cells produced with immobilized cell technology compared to the control (B. longum [1])	Tolerance of cells produced with immobilized cell technology compared to the control (L. diacetylactis)	Cell survival (B. longum [2]; B. longum cells produced with ICT) [%]	Cell survival (B. longum [2]; B. longum control cells (free-cell batch culture)) [%]
CN[C@H](CC(C)C)C(=O)N[C@H]1C(=O)N[C@@H](CC(N)=O)C(=O)N[C@H]2C(=O)N[C@H]3C(=O)N[C@H](C(=O)N[C@H](C(=O)O)c4cc(O)cc(O)c4-c4cc3ccc4O)[C@H](O)c3ccc(c(Cl)c3)Oc3cc2cc(c3O[C@@H]2O[C@H](CO)[C@@H](O)[C@H](O)[C@H]2O[C@H]2C[C@](C)(N)[C@H](O)[C@H](C)O2)Oc2ccc(cc2Cl)[C@H]1O [Vancomycin]	increased tolerance	more tolerant	–	–
CN(C)[C@@H]1C(=O)C(C(N)=O)=C(O)[C@@]2(O)C(=O)C3=C(O)c4c(O)cccc4[C@@](C)(O)[C@H]3C[C@@H]12 [tetracyclin]	increased tolerance	more tolerant	–	–
CC[C@H]1OC(=O)[C@H](C)[C@@H](O[C@H]2C[C@@](C)(OC)[C@@H](O)[C@H](C)O2)[C@H](C)[C@@H](O[C@@H]2O[C@H](C)C[C@H](N(C)C)[C@H]2O)[C@](C)(O)C[C@@H](C)C(=O)[C@H](C)[C@@H](O)[C@]1(C)O [Erythromycin]	increased tolerance	–	–	–
Nisin Z (ITSISLCTPGCKTGALMGCNMKTATCNCSIHVSK; also: lantibiotic nisin-Z: thioether rings and dehydro residues not placed; UniProt P29559 24-57, looked up) [bacteriocin tested among the antibiotics in the disc assay]	increased tolerance	more tolerant	–	–
O=C(N[C@H](CO)[C@H](O)c1ccc([N+](=O)[O-])cc1)C(Cl)Cl [Chloramphenicol]	increased tolerance	more tolerant	–	–
OO [H2O2, hydrogen peroxide]	–	–	0.1	0.003
